Laboratory results from patent US10251889B2, “Substituted pyrazolo[1,5-a]pyrimidine compounds as Trk kinase inhibitors” (Array BioPharma, Inc., priority 2009, dated 2019).
Structures can show the parent of a compound that is named as a salt. Where two headings read alike, the source gives them in different places.

Target: Jak2 (human Jak2 kinase domain, amino acids 808-1132) (Homo sapiens (Human), UniProt O60674)
Assay: Jak2 inhibition assay (Omnia kinase assay)
Type: biochemical
Method: The assays described in Examples C, D, E and F for the determination of JAK1, JAK2, JAK3 and Tyk2 kinase activity, respectively, utilized the Omnia® Kinase fluorescence peptide substrate-based technology (Invitrogen). […] The reactions were therefore read at excitation 360 nm and emission was measured at 485 nm every 50 seconds for 45 minutes using a PerkinElmer EnVision Multilabel Plate Reader.
The final buffer conditions for each of the JAK1, JAK2, JAK3 and Tyk2 assays were as follows: 25 mM HEPES, pH 7.4, 10 mM MgCl2, 0.01% Triton X-100 and 1 mM DTT.
Two-μL aliquots of these were transferred to a fresh plate for a ten-fold intermediate dilution with assay buffer. Five-μL aliquots of the diluted compounds were then transferred to 20-μL of assay mixtures described in Examples C, D, E and F for a final concentration of DMSO of 2%. […] For each plate, percent of control (POC) values were calculated for each well according to the following equation:
where Xmax=Average Uninhibited Controls • Xmin=Average Background IC50's were estimated from the POC's using a standard 4-parameter logistic model:
where A=Minimum Y (Bottom Asymptote) • B=Maximum Y (Top Asymptote) • C=EC50 • D=Slope Factor • X=Compound Concentration (nM) • Y=POC
The IC50 is defined as the concentration of inhibitor at which the POC equals 50 for the fitted curve.
Compounds of Formula I were screened for their ability to inhibit Jak2 using the general enzyme inhibition assay method, in which the assay mixture contained 500 μM ATP, 10 μM Omnia® Y7 peptide (Catalog # IVGN KNZ3071C, Invitrogen Corporation, Carlsbad, Calif.) and 4 nM Jak2 in a total volume of 20 μL. Human Jak2 kinase domain comprising amino acids 808-1132 was purchased from Invitrogen Corporation, Carlsbad, Calif. (catalog # IVGN PV4210).

[1] = read-out: Jak2 Enzyme (% inhibition at 1000 nM), Table 1, 1000 nM test compound

Chain of Jak2 (human Jak2 kinase domain, amino acids 808-1132) (O60674 808-1132): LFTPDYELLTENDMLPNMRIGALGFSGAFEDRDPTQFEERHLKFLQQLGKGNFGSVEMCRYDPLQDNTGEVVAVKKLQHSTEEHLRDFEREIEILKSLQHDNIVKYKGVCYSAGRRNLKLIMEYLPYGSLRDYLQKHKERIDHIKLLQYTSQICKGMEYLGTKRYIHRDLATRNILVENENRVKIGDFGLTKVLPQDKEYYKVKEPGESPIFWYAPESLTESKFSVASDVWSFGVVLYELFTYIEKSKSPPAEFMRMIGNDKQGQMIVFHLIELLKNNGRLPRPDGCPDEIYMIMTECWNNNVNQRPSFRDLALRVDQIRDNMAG

Row | SMILES | inhibition at 1 µM [1] [%] | inhibition at 1 µM (read-out: Jak2 Enzyme (% inhibition at 1000 nM)) [%]
1 | CC1(O)CN(C(=O)c2cnn3ccc(N4CCC[C@@H]4c4cc(F)ccc4F)nc23)C1 [Example 32, (R)-(5-(2-(2,5-difluorophenyl)pyrrolidin-1-yl)pyrazolo[1,5-a]pyrimidin-3-yl)(3-hydroxy-3-methylazetidin-1-yl)methanone] | 8.6 | 
2 | CC(C)(C#N)NC(=O)c1cnn2ccc(N3CCC[C@@H]3c3cc(F)ccc3F)nc12 [Example 38, (R)—N-(2-cyanopropan-2-yl)-5-(2-(2,5-difluorophenyl)pyrrolidin-1-yl)pyrazolo[1,5-a]pyrimidine-3-carboxamide] | 18.2 | 
3 | N#CCNC(=O)c1cnn2ccc(N3CCC[C@@H]3c3cc(F)ccc3F)nc12 [Example 39, (R)—N-(cyanomethyl)-5-(2-(2,5-difluorophenyl)pyrrolidin-1-yl)pyrazolo[1,5-a]pyrimidine-3-carboxamide] | 30.4 | 
4 | CC(C)(CF)NC(=O)c1cnn2ccc(N3CCC[C@@H]3c3cc(F)ccc3F)nc12 [Example 40, (R)-5-(2-(2,5-difluorophenyl)pyrrolidin-1-yl)-N-(1-fluoro-2-methylpropan-2-yl)pyrazolo[1,5-a]pyrimidine-3-carboxamide] | 41.4 | 
5 | CC(C)(C)NC(=O)c1cnn2ccc(N3C[C@H](O)C[C@@H]3c3cccc(F)c3)nc12 [Example 42, N-tert-butyl-5-((2R,4R)-2-(3-fluorophenyl)-4-hydroxypyrrolidin-1-yl)pyrazolo[1,5-a]pyrimidine-3-carboxamide] | 7.7 | 
6 | CS(=O)(=O)NCCNC(=O)c1cnn2ccc(N3CCC[C@@H]3c3cc(F)ccc3F)nc12 [Example 46, (R)-5-(2-(2,5-difluorophenyl)pyrrolidin-1-yl)-N-(2-(methylsulfonamido)ethyl)pyrazolo[1,5-a]pyrimidine-3-carboxamide] | 13.8 | 
7 | NS(=O)(=O)CCNC(=O)c1cnn2ccc(N3CCC[C@@H]3c3cc(F)ccc3F)nc12 [Example 47, (R)-5-(2-(2,5-difluorophenyl)pyrrolidin-1-yl)-N-(2-sulfamoylethyl)pyrazolo[1,5-a]pyrimidine-3-carboxamide] | 37.3 | 
8 | COc1ccc(F)cc1[C@H]1CCCN1c1ccn2ncc(C(=O)NCC(C)(C)O)c2n1 [Example 49, (R)-5-(2-(5-fluoro-2-methoxyphenyl)pyrrolidin-1-yl)-N-(2-hydroxy-2-methylpropyl)pyrazolo[1,5-a]pyrimidine-3-carboxamide] | 17.2 | 
9 | CC(C)(C)NC(=O)c1cnn2ccc(N3CCC[C@@H]3c3cncc(F)c3)nc12 [Example 53, (R)—N-tert-butyl-5-(2-(5-fluoropyridin-3-yl)pyrrolidin-1-yl)pyrazolo[1,5-a]pyrimidine-3-carboxamide] | 8.7 | 
10 | COc1ccc(F)cc1[C@H]1CCCN1c1ccn2ncc(C(=O)NCCN3CCOCC3)c2n1 [Example 54, (R)-5-(2-(5-fluoro-2-methoxyphenyl)pyrrolidin-1-yl)-N-(2-morpholinoethyl)pyrazolo[1,5-a]pyrimidine-3-carboxamide] | 23 | 
11 | COc1ccc(F)cc1[C@H]1CCCN1c1ccn2ncc(C(=O)NC[C@H](O)CO)c2n1 [Example 55, N—((S)-2,3-dihydroxypropyl)-5-((R)-2-(5-fluoro-2-methoxyphenyl)pyrrolidin-1-yl)pyrazolo[1,5-a]pyrimidine-3-carboxamide] | 24.1 | 
12 | COc1ccc(F)cc1[C@H]1CCCN1c1ccn2ncc(C(=O)NC[C@@H](O)CO)c2n1 [Example 56, N—((R)-2,3-dihydroxypropyl)-5-((R)-2-(5-fluoro-2-methoxyphenyl)pyrrolidin-1-yl)pyrazolo[1,5-a]pyrimidine-3-carboxamide] | 28 | 
13 | CC(C)(N)CNC(=O)c1cnn2ccc(N3CCC[C@@H]3c3cc(F)ccc3F)nc12 [Example 58, (R)—N-(2-amino-2-methylpropyl)-5-(2-(2,5-difluorophenyl)pyrrolidin-1-yl)pyrazolo[1,5-a]pyrimidine-3-carboxamide] | 4.7 | 
14 | O=C(N[C@@H]1CCNC[C@@H]1F)c1cnn2ccc(N3CCC[C@@H]3c3cc(F)ccc3F)nc12 [Example 61, 5-((R)-2-(2,5-difluorophenyl)pyrrolidin-1-yl)-N-((3S,4R)-3-fluoropiperidin-4-yl)pyrazolo[1,5-a]pyrimidine-3-carboxamide Hydrochloride] |  | 54.4
15 | O=C(NC[C@H](O)CO)c1cnn2ccc(N3CCC[C@@H]3c3cc(F)ccc3C(F)(F)F)nc12 [Example 62, N—((S)-2,3-dihydroxypropyl)-5-((R)-2-(5-fluoro-2-(trifluoromethyl)phenyl)pyrrolidin-1-yl)pyrazolo[1,5-a]pyrimidine-3-carboxamide] | 35.2 | 
16 | O=C(NC[C@@H](O)CO)c1cnn2ccc(N3CCC[C@@H]3c3cc(F)ccc3C(F)(F)F)nc12 [Example 63, N—((R)-2,3-dihydroxypropyl)-5-((R)-2-(5-fluoro-2-(trifluoromethyl)phenyl)pyrrolidin-1-yl)pyrazolo[1,5-a]pyrimidine-3-carboxamide] | 33.1 | 
17 | NC(=O)c1cnn2ccc(N3CCC[C@@H]3c3cc(F)ccc3C(F)(F)F)nc12 [Example 64, (R)-5-(2-(5-fluoro-2-(trifluoromethyl)phenyl)pyrrolidin-1-yl)pyrazolo[1,5-a]pyrimidine-3-carboxamide] | 60.3 | 
18 | CONC(=O)c1cnn2ccc(N3CCC[C@@H]3c3cc(F)ccc3F)nc12 [Example 65, (R)-5-(2-(2,5-difluorophenyl)pyrrolidin-1-yl)-N-methoxypyrazolo[1,5-a]pyrimidine-3-carboxamide] | 34.1 | 
19 | CC1(C)CC[C@H](c2cc(F)ccc2F)N1c1ccn2ncc(C(N)=O)c2n1 [Example 67, (R)-5-(5-(2,5-difluorophenyl)-2,2-dimethylpyrrolidin-1-yl)pyrazolo[1,5-a]pyrimidine-3-carboxamide] | 22.3 | 

The next lines start with results.

Row | inhibition at 1 µM [1] [%] | SMILES | inhibition at 1 µM (read-out: Jak2 Enzyme (% inhibition at 1000 nM)) [%]
20 | 99.9 | O=C(N[C@H]1CC[C@H](C(=O)O)CC1)c1cnn2ccc(N3CCC[C@@H]3c3cc(F)ccc3F)nc12 [Example 33, Trans-4-(5-((R)-2-(2,5-difluorophenyl)pyrrolidin-1-yl)pyrazolo[1,5-a]pyrimidine-3-carboxamido)cyclohexanecarboxylic Acid] | 
21 | 96.9 | COc1ccc(F)cc1[C@H]1CCCN1c1ccn2ncc(C(=O)N[C@H]3CC[C@H](O)CC3)c2n1 [Example 34, 5-((R)-2-(5-fluoro-2-methoxyphenyl)pyrrolidin-1-yl)-N-((trans)-4-hydroxycyclohexyl)pyrazolo[1,5-a]pyrimidine-3-carboxamide] | 
22 | 77.4 | O=C(N[C@H]1CC[C@H](O)CC1)c1cnn2ccc(N3CCC[C@@H]3c3cccc(F)c3)nc12 [Example 35, 5-((R)-2-(3-fluorophenyl)pyrrolidin-1-yl)-N-((trans)-4-hydroxycyclohexyl)pyrazolo[1,5-a]pyrimidine-3-carboxamide] | 
23 | 22.2 | CC(C)(C)NC(=O)c1cnn2ccc(N3CCC[C@@H]3c3cccc(F)c3)nc12 [Example 36, (R)—N-tert-butyl-5-(2-(3-fluorophenyl)pyrrolidin-1-yl)pyrazolo[1,5-a]pyrimidine-3-carboxamide] | 
24 | 25 | O=C(NC1CC1)c1cnn2ccc(N3CCC[C@@H]3c3cccc(F)c3)nc12 [Example 37, (R)—N-cyclopropyl-5-(2-(3-fluorophenyl)pyrrolidin-1-yl)pyrazolo[1,5-a]pyrimidine-3-carboxamide] | 
25 | 4.2 | CNC(=O)c1cnn2ccc(N3C[C@H](O)C[C@@H]3c3cccc(F)c3)nc12 [Example 43, 5-((2R,4R)-2-(3-fluorophenyl)-4-hydroxypyrrolidin-1-yl)-N-methylpyrazolo[1,5-a]pyrimidine-3-carboxamide] | 
26 | 71.5 | CS(=O)(=O)N1CCC(NC(=O)c2cnn3ccc(N4CCC[C@@H]4c4cc(F)ccc4F)nc23)CC1 [Example 44, (R)-5-(2-(2,5-difluorophenyl)pyrrolidin-1-yl)-N-(1-(methylsulfonyl)piperidin-4-yl)pyrazolo[1,5-a]pyrimidine-3-carboxamide] | 
27 | 84 | NS(=O)(=O)N1CCC(NC(=O)c2cnn3ccc(N4CCC[C@@H]4c4cc(F)ccc4F)nc23)CC1 [Example 45, (R)-5-(2-(2,5-difluorophenyl)pyrrolidin-1-yl)-N-(1-sulfamoylpiperidin-4-yl)pyrazolo[1,5-a]pyrimidine-3-carboxamide] | 
28 | 72.7 | COc1ccc(F)cc1[C@H]1CCCN1c1ccn2ncc(C(=O)NC3CC3)c2n1 [Example 48, (R)—N-cyclopropyl-5-(2-(5-fluoro-2-methoxyphenyl)pyrrolidin-1-yl)pyrazolo[1,5-a]pyrimidine-3-carboxamide] | 
29 | 24.7 | O=C(NOCC1CC1)c1cnn2ccc(N3CCC[C@@H]3c3cc(F)ccc3F)nc12 [Example 66, (R)—N-(cyclopropylmethoxy)-5-(2-(2,5-difluorophenyl)pyrrolidin-1-yl)pyrazolo[1,5-a]pyrimidine-3-carboxamide] | 
